The subject of the experiment is MV-4-11 cells. Kind of experiment: Gene expression microarray analysis (Affymetrix PrimeView) and GSEA. It counts as cell-based, human. Also on record: RFU PODN (11730768_x_at) / Fold change /veh PODN (11730768_x_at) / RFU LINC00158 (11744669_a_at) / Fold change /veh LINC00158 (11744669_a_at) / RFU DUSP10 (11751237_a_at) / Fold change /veh DUSP10 (11751237_a_at) / RFU ID3 (11757404_x_at) / Fold change /veh ID3 (11757404_x_at) / RFU PLEKHG5 (11737974_s_at) / Fold change /veh PLEKHG5 (11737974_s_at) / RFU LRRC4B (11730491_at) / Fold change /veh LRRC4B (11730491_at) / RFU GIMAP4 (11747438_a_at) / Fold change /veh GIMAP4 (11747438_a_at) / RFU KRT8 (11758183_x_at) / Fold change /veh KRT8 (11758183_x_at) / RFU CNN1 (11734310_a_at) / Fold change /veh CNN1 (11734310_a_at) / RFU VPS37D (11726825_at) / Fold change /veh VPS37D (11726825_at) / RFU C10orf10 (11716522_x_at) / Fold change /veh C10orf10 (11716522_x_at) / RFU KIR2DL2 /// KIR2DL4 /// KIR2DL5A /// KIR2DL5B /// KIR2DS1 /// KIR2DS2 /// KIR2DS3 /// KIR2DS4 /// KIR3DL3 /// KIR3DL3 /// KIR3DS1 (11738374_at) / Fold change /veh KIR2DL2 /// KIR2DL4 /// KIR2DL5A /// KIR2DL5B /// KIR2DS1 /// KIR2DS2 /// KIR2DS3 /// KIR2DS4 /// KIR3DL3 /// KIR3DL3 /// KIR3DS1 (11738374_at) / RFU C1QL1 (11718748_at) / Fold change /veh C1QL1 (11718748_at) / RFU TMPRSS4 (11747572_a_at) / Fold change /veh TMPRSS4 (11747572_a_at) / RFU HAMP (11756126_x_at) / Fold change /veh HAMP (11756126_x_at) / RFU RNFT2 (11725882_a_at) / Fold change /veh RNFT2 (11725882_a_at) / RFU NR4A2 (11747474_a_at) / Fold change /veh NR4A2 (11747474_a_at) / RFU ABCC12 (11746883_a_at) / Fold change /veh ABCC12 (11746883_a_at) / RFU TMEM136 (11760407_x_at) / Fold change /veh TMEM136 (11760407_x_at) / RFU CLDN22 /// WWC2 (11732394_at) / Fold change /veh CLDN22 /// WWC2 (11732394_at) / RFU HLA-DPB1 (11760878_x_at) / Fold change /veh HLA-DPB1 (11760878_x_at) / RFU SPINT1 (11716480_a_at) / Fold change /veh SPINT1 (11716480_a_at) / RFU GAP43 (11754022_s_at) / Fold change /veh GAP43 (11754022_s_at) / RFU A4GNT (11735810_at) / Fold change /veh A4GNT (11735810_at) / RFU PRB3 (11715151_x_at) / Fold change /veh PRB3 (11715151_x_at) / RFU TUBB4B (11761932_at) / Fold change /veh TUBB4B (11761932_at) / RFU CAPN14 (11732068_a_at) / Fold change /veh CAPN14 (11732068_a_at) / RFU TMCC2 (11721928_a_at) / Fold change /veh TMCC2 (11721928_a_at) / RFU IRGQ (11745062_a_at) / Fold change /veh IRGQ (11745062_a_at) / RFU FAM174B (11720279_a_at) / Fold change /veh FAM174B (11720279_a_at) / RFU TMPRSS4 (11748680_a_at) / Fold change /veh TMPRSS4 (11748680_a_at) / RFU FAM212B (11763350_a_at) / Fold change /veh FAM212B (11763350_a_at) / RFU PLEKHG5 (11743358_a_at) / Fold change /veh PLEKHG5 (11743358_a_at) / RFU ZSCAN30 (11745921_a_at) / Fold change /veh ZSCAN30 (11745921_a_at) / RFU CMKLR1 (11741424_a_at) / Fold change /veh CMKLR1 (11741424_a_at) / RFU LOC101060620 /// MAPK8IP1 (11723275_at) / Fold change /veh LOC101060620 /// MAPK8IP1 (11723275_at) / RFU SPTSSB (11747773_x_at) / Fold change /veh SPTSSB (11747773_x_at) / RFU PRSS12 (11739890_at) / Fold change /veh PRSS12 (11739890_at) / RFU BIN1 (11741810_x_at) / Fold change /veh BIN1 (11741810_x_at) / RFU WNT11 (11732464_a_at) / Fold change /veh WNT11 (11732464_a_at) / RFU C10orf10 (11716521_a_at) / Fold change /veh C10orf10 (11716521_a_at) / RFU C5orf56 (11738089_at) / Fold change /veh C5orf56 (11738089_at) / RFU CYB561 (11721691_x_at) / Fold change /veh CYB561 (11721691_x_at) / RFU ANKRD19P (11752326_a_at) / Fold change /veh ANKRD19P (11752326_a_at) / RFU OR2T12 /// OR2T33 /// OR2T8 (11738714_s_at) / Fold change /veh OR2T12 /// OR2T33 /// OR2T8 (11738714_s_at) / RFU VCAN (11748164_a_at) / Fold change /veh VCAN (11748164_a_at) / RFU JSRP1 (11732532_at) / Fold change /veh JSRP1 (11732532_at) / RFU KRTAP10-11 (11738290_x_at) / Fold change /veh KRTAP10-11 (11738290_x_at) / RFU MYO3A (11730013_a_at) / Fold change /veh MYO3A (11730013_a_at) / RFU EBF3 (11725865_a_at) / Fold change /veh EBF3 (11725865_a_at) / RFU CAMK2N1 (11719241_x_at) / Fold change /veh CAMK2N1 (11719241_x_at) / RFU C5orf56 (11738088_a_at) / Fold change /veh C5orf56 (11738088_a_at) / RFU OLFML3 (11715873_a_at) / Fold change /veh OLFML3 (11715873_a_at) / RFU LOC100653217 /// NTM (11731650_a_at) / Fold change /veh LOC100653217 /// NTM (11731650_a_at) / RFU MAPK11 (11762145_a_at) / Fold change /veh MAPK11 (11762145_a_at) / RFU FIZ1 (11724087_x_at) / Fold change /veh FIZ1 (11724087_x_at) / RFU OASL (11726364_x_at) / Fold change /veh OASL (11726364_x_at) / RFU SOX15 (11748057_x_at) / Fold change /veh SOX15 (11748057_x_at) / RFU CD79A (11719716_a_at) / Fold change /veh CD79A (11719716_a_at) / RFU HIST1H1D (11736915_at) / Fold change /veh HIST1H1D (11736915_at) / RFU CASKIN2 (11723855_a_at) / Fold change /veh CASKIN2 (11723855_a_at) / RFU LOC730098 (11760151_x_at) / Fold change /veh LOC730098 (11760151_x_at) / RFU OR4N2 (11742367_at) / Fold change /veh OR4N2 (11742367_at) / RFU PRRT2 (11749266_a_at) / Fold change /veh PRRT2 (11749266_a_at) / RFU SNX32 (11753110_a_at) / Fold change /veh SNX32 (11753110_a_at) / RFU CDHR5 (11726645_a_at) / Fold change /veh CDHR5 (11726645_a_at) / RFU RCAN1 (11760418_a_at) / Fold change /veh RCAN1 (11760418_a_at) / RFU FAM167A (11723789_a_at) / Fold change /veh FAM167A (11723789_a_at) / RFU FAM26E (11764081_at) / Fold change /veh FAM26E (11764081_at) / RFU ISYNA1 (11749810_s_at) / Fold change /veh ISYNA1 (11749810_s_at) / RFU ACY1 (11761880_at) / Fold change /veh ACY1 (11761880_at) / RFU 11764098_at / Fold change /veh 11764098_at / RFU SAMD14 (11745864_x_at) / Fold change /veh SAMD14 (11745864_x_at) / RFU NPB (11741838_a_at) / Fold change /veh NPB (11741838_a_at) / RFU TMPRSS6 (11731388_a_at) / Fold change /veh TMPRSS6 (11731388_a_at) / RFU KRTAP10-2 (11738614_at) / Fold change /veh KRTAP10-2 (11738614_at) / RFU ARHGAP8 /// PRR5-ARHGAP8 (11727945_x_at) / Fold change /veh ARHGAP8 /// PRR5-ARHGAP8 (11727945_x_at) / RFU KRTAP5-7 /// NADSYN1 (11734609_at) / Fold change /veh KRTAP5-7 /// NADSYN1 (11734609_at) / RFU RASL12 (11751679_a_at) / Fold change /veh RASL12 (11751679_a_at) / RFU CDKN2B (11736163_a_at) / Fold change /veh CDKN2B (11736163_a_at) / RFU PRF1 (11729649_at) / Fold change /veh PRF1 (11729649_at) / RFU, ZNF638 /// ZNF638-IT1 / Fold change vs veh, ZNF638 /// ZNF638-IT1 / RFU, PANK3 / Fold change vs veh, PANK3 / RFU, SH3YL1 / Fold change vs veh, SH3YL1 / RFU, ZEB2 / Fold change vs veh, ZEB2 / RFU, NRIP1 / Fold change vs veh, NRIP1 / RFU, PTTG1IP / Fold change vs veh, PTTG1IP / RFU, CAPN2 / Fold change vs veh, CAPN2 / RFU, MED14 / Fold change vs veh, MED14 / RFU, SNORA58 / Fold change vs veh, SNORA58 / RFU, C1orf63 / Fold change vs veh, C1orf63 / RFU, LRRFIP1 / Fold change vs veh, LRRFIP1 / RFU, NDUFAF7 / Fold change vs veh, NDUFAF7 / RFU, SLC12A2 / Fold change vs veh, SLC12A2 / RFU, IBTK / Fold change vs veh, IBTK / RFU, ESF1 / Fold change vs veh, ESF1 / Fold change vs veh, TMEM50B / RFU, TAOK1 / Fold change vs veh, TAOK1 / RFU, ACBD3 / Fold change vs veh, ACBD3 / RFU, TMA16 / Fold change vs veh, TMA16 / RFU, RWDD3 / Fold change vs veh, RWDD3 / RFU, BCAT1 / Fold change vs veh, BCAT1 / RFU, EDEM3 / Fold change vs veh, EDEM3 / RFU, TMEM33 / Fold change vs veh, TMEM33 / RFU, WDR75 / Fold change vs veh, WDR75 / RFU, AHCTF1 / Fold change vs veh, AHCTF1 / RFU, TFRC / Fold change vs veh, TFRC / RFU, ZDHHC17 / Fold change vs veh, ZDHHC17 / RFU, NOM1 / Fold change vs veh, NOM1 / RFU, ARL8B / Fold change vs veh, ARL8B / RFU, ZBTB11 / Fold change vs veh, ZBTB11 / RFU, TAMM41 / Fold change vs veh, TAMM41 / RFU, KIAA1704 /// LOC100996395 / Fold change vs veh, KIAA1704 /// LOC100996395 / RFU, ING1 / Fold change vs veh, ING1 / RFU, TRMT61B / Fold change vs veh, TRMT61B / RFU, FUBP3 / Fold change vs veh, FUBP3 / RFU, TP53 / Fold change vs veh, TP53 / RFU, TNKS2 / Fold change vs veh, TNKS2 / RFU, ZFP14 / Fold change vs veh, ZFP14 / RFU, ACTR2 / Fold change vs veh, ACTR2 / RFU, PPP3R1 / Fold change vs veh, PPP3R1 / RFU, PIK3R1 / Fold change vs veh, PIK3R1 / RFU, HNRNPA1 / Fold change vs veh, HNRNPA1 / RFU, RNF170 / Fold change vs veh, RNF170 / RFU, ZNF28 / Fold change vs veh, ZNF28 / RFU, RNGTT / Fold change vs veh, RNGTT / RFU, OGT / Fold change vs veh, OGT / RFU, BRD1 / Fold change vs veh, BRD1 / RFU, MARS / Fold change vs veh, MARS / RFU, ZNF655 / Fold change vs veh, ZNF655 / RFU, FAHD1 / Fold change vs veh, FAHD1 / RFU, BDP1 / Fold change vs veh, BDP1 / RFU, LRRCC1 / Fold change vs veh, LRRCC1 / RFU, ARID1A / Fold change vs veh, ARID1A / RFU, ZNF146 / Fold change vs veh, ZNF146 / RFU, ZNF330 / Fold change vs veh, ZNF330 / RFU, GPN3 / Fold change vs veh, GPN3 / RFU, C9orf123 / Fold change vs veh, C9orf123 / RFU, N4BP2L2 / Fold change vs veh, N4BP2L2 / RFU, ARFIP1 / Fold change vs veh, ARFIP1 / RFU, FAM179B / Fold change vs veh, FAM179B / RFU, BCL10 / Fold change vs veh, BCL10 / RFU, UHRF1BP1L / Fold change vs veh, UHRF1BP1L / RFU, BET1 / Fold change vs veh, BET1 / RFU, CNOT2 / Fold change vs veh, CNOT2 / RFU, ZNF268 / Fold change vs veh, ZNF268 / Fold change vs veh, ZNF507 / RFU, DGCR2 / Fold change vs veh, DGCR2 / RFU, WDSUB1 / Fold change vs veh, WDSUB1 / Fold change vs veh, HSP90B1 /// MIR3652 / RFU, ADSS / Fold change vs veh, ADSS / RFU, GK / Fold change vs veh, GK / RFU, ZNF148 / Fold change vs veh, ZNF148 / RFU, TAF9 / Fold change vs veh, TAF9 / RFU, SLC1A5 / Fold change vs veh, SLC1A5 / RFU, SLMO2 / Fold change vs veh, SLMO2 / RFU, ABCC4 / Fold change vs veh, ABCC4 / RFU, LOC101060439 /// RAP1B / Fold change vs veh, LOC101060439 /// RAP1B / RFU, RFX7 / Fold change vs veh, RFX7 / RFU, GTPBP10 / Fold change vs veh, GTPBP10 / RFU, CNEP1R1 / Fold change vs veh, CNEP1R1 / RFU, BIVM-ERCC5 /// ERCC5 / Fold change vs veh, BIVM-ERCC5 /// ERCC5 / RFU, ILF3 / Fold change vs veh, ILF3 / RFU 11762660_at / Fold change /veh 11762660_at / RFU VCAN (11757783_s_at) / Fold change /veh VCAN (11757783_s_at) / RFU DDX43 (11728927_at) / Fold change /veh DDX43 (11728927_at) / RFU KRT8 (11758188_x_at) / Fold change /veh KRT8 (11758188_x_at) / RFU NKD1 (11759106_at) / Fold change /veh NKD1 (11759106_at) / RFU SRD5A1 (11742802_a_at) / Fold change /veh SRD5A1 (11742802_a_at) / RFU TPSAB1 /// TPSB2 (11721975_s_at) / Fold change /veh TPSAB1 /// TPSB2 (11721975_s_at) / RFU GSTM3 (11746129_a_at) / Fold change /veh GSTM3 (11746129_a_at) / RFU IL23R (11737362_x_at) / Fold change /veh IL23R (11737362_x_at) / RFU TMEM51 (11727254_a_at) / Fold change /veh TMEM51 (11727254_a_at) / RFU PIWIL2 (11732686_x_at) / Fold change /veh PIWIL2 (11732686_x_at) / RFU ORM1 (11744905_x_at) / Fold change /veh ORM1 (11744905_x_at) / RFU CCDC152 (11743942_at) / Fold change /veh CCDC152 (11743942_at) / RFU ECM1 (11717891_a_at) / Fold change /veh ECM1 (11717891_a_at) / RFU IL23R (11748794_a_at) / Fold change /veh IL23R (11748794_a_at) / RFU TNFAIP8L3 (11732012_x_at) / Fold change /veh TNFAIP8L3 (11732012_x_at) / RFU MBOAT4 (11741988_at) / Fold change /veh MBOAT4 (11741988_at) / RFU 11764193_at / Fold change /veh 11764193_at / RFU TMEM53 (11763286_at) / Fold change /veh TMEM53 (11763286_at) / RFU MAGEB2 (11727129_at) / Fold change /veh MAGEB2 (11727129_at) / RFU TMEM200A (11744735_a_at) / Fold change /veh TMEM200A (11744735_a_at) / RFU CCDC152 (11751479_a_at) / Fold change /veh CCDC152 (11751479_a_at) / RFU FAM211A (11726209_a_at) / Fold change /veh FAM211A (11726209_a_at) / RFU RGS16 (11746705_a_at) / Fold change /veh RGS16 (11746705_a_at) / RFU VCAN (11755009_s_at) / Fold change /veh VCAN (11755009_s_at) / RFU RHOB (11743442_s_at) / Fold change /veh RHOB (11743442_s_at) / RFU RGS16 (11720943_a_at) / Fold change /veh RGS16 (11720943_a_at) / RFU RGS16 (11720944_at) / Fold change /veh RGS16 (11720944_at) / RFU, VPS4B / Fold change vs veh, VPS4B / RFU, CREB1 / Fold change vs veh, CREB1 / RFU, DNAJC13 / Fold change vs veh, DNAJC13 / RFU, GNAQ / Fold change vs veh, GNAQ / RFU, CDK5R1 / Fold change vs veh, CDK5R1 / RFU, ZRANB3 / Fold change vs veh, ZRANB3 / RFU, CUL4A / Fold change vs veh, CUL4A / RFU, CCNY / Fold change vs veh, CCNY / RFU, UFL1 / Fold change vs veh, UFL1 / RFU, COG3 / Fold change vs veh, COG3 / RFU, DIAPH2 / Fold change vs veh, DIAPH2 / RFU, SKA2 / Fold change vs veh, SKA2 / RFU, AFF3 / Fold change vs veh, AFF3 / RFU, LMF1 / Fold change vs veh, LMF1 / RFU, IPO11 / Fold change vs veh, IPO11 / RFU, DFFB / Fold change vs veh, DFFB / RFU, FOXP1 / Fold change vs veh, FOXP1 / RFU, CARD8 / Fold change vs veh, CARD8 / RFU, STRN3 / Fold change vs veh, STRN3 / RFU, ADK / Fold change vs veh, ADK / RFU, RASSF2 / Fold change vs veh, RASSF2 / RFU, WIPF1 / Fold change vs veh, WIPF1 / RFU, LARP1B / Fold change vs veh, LARP1B / RFU, RASA1 / Fold change vs veh, RASA1 / RFU, RB1 / Fold change vs veh, RB1 / RFU, PPFIA1 / Fold change vs veh, PPFIA1 / RFU, MAT2A / Fold change vs veh, MAT2A / RFU, CCT5 / Fold change vs veh, CCT5 / RFU, WDR92 / Fold change vs veh, WDR92 / RFU, CUX1 / Fold change vs veh, CUX1 / RFU, TTC7A / Fold change vs veh, TTC7A / RFU, TMEM135 / Fold change vs veh, TMEM135 / RFU, DEPTOR / Fold change vs veh, DEPTOR / RFU, CPM / Fold change vs veh, CPM / RFU, DNAJB6 / Fold change vs veh, DNAJB6 / RFU, CACNA2D3 / Fold change vs veh, CACNA2D3 / RFU, DTX4 / Fold change vs veh, DTX4 / RFU, TFCP2 / Fold change vs veh, TFCP2 / RFU, GMCL1 /// GMCL1P1 / Fold change vs veh, GMCL1 /// GMCL1P1 / RFU, AEBP2 / Fold change vs veh, AEBP2 / RFU, SNHG1 /// SNORD22 /// SNORD25 /// SNORD26 /// SNORD27 /// SNORD28 /// SNORD29 /// SNORD31 / Fold change vs veh, SNHG1 /// SNORD22 /// SNORD25 /// SNORD26 /// SNORD27 /// SNORD28 /// SNORD29 /// SNORD31 / Fold change (Aza/veh), C12orf56 (ProbeSet 11735607_a_at) / Fold change (ACY-1035/veh), C12orf56 (ProbeSet 11735607_a_at) / Fold change (Aza/veh), FGFR1OP (ProbeSet 11751329_s_at) / Fold change (ACY-1035/veh), FGFR1OP (ProbeSet 11751329_s_at) / Fold change (Aza/veh), VPS36 (ProbeSet 11739960_a_at) / Fold change (ACY-1035/veh), VPS36 (ProbeSet 11739960_a_at) / RFU SYPL1 (11715823_x_at) / Fold change /veh SYPL1 (11715823_x_at) / RFU IGFBP7 (11715501_s_at) / Fold change /veh IGFBP7 (11715501_s_at) / RFU REEP3 (11722064_at) / Fold change /veh REEP3 (11722064_at) / RFU IGLL1 (11728026_x_at) / Fold change /veh IGLL1 (11728026_x_at): dose or concentration left out as unconfirmed. The following applies: MV-4-11 cells, 48 hours.

Consider `Nc1ncn([C@@H]2O[C@H](CO)[C@@H](O)[C@H]2O)c(=O)n1` [azacitidine], for which the “Fold change /veh LOC100653217 /// NTM (11731650_a_at)” value was 1.16.

(Values after publication PMC5218480 (PLoS ONE, 2017).)
